Consider 13 compounds from patent publication US7250417B2, “Arylmethyl triazolo- and imidazopyrazines as c-Met inhibitors” (Sugen Inc., priority 2003, dated 2007).

Where “and” joins values, the source holds several entries; their conditions need not be identical. Identical values can stand only once.

As usually defined, the IC50 is the midpoint of a concentration-inhibition curve.

T1 sequence (P08581 1078-1345 limits assumed): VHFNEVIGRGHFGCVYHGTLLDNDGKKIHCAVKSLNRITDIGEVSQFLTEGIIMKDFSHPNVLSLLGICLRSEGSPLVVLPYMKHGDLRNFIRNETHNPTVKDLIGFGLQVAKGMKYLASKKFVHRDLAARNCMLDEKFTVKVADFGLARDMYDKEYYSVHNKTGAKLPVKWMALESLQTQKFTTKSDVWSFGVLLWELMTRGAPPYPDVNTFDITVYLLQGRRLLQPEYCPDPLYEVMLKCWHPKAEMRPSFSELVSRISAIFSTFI

The assay has as its target T1, c-MET (purified GST fusion protein containing the Met kinase domain) (Homo sapiens, UniProt P08581).
T1 construct: Purified GST fusion protein containing the Met kinase domain, Sugen, Inc
The experiment in a line: Met transphosphorylation assay (ELISA, poly(Glu,Tyr) 4:1 substrate). In kind it is biochemical. To be noted: purified GST-Met kinase domain 10 ng/well. On the procedure:
Met Transphosphorylation Assay
This assay is used to measure phosphotyrosine levels on a poly(glutamic acid:tyrosine (4:1)) substrate as a means for identifying agonists/antagonists of met transphosphorylation of the substrate.
• 1. […] PBS, Gibco Catalog #450-1300EB • 4. 50 mM HEPES • 5. […] Purified GST fusion protein containing the Met kinase domain, Sugen, Inc. • 7. TBST Buffer. • 8. 10% aqueous (MilliQue H2O) DMSO. • 9. […] 2× Kinase Dilution Buffer: for 100 ml, mix 10 mL 1 M HEPES at pH 7.5 with 0.4 mL 5% BSA/PBS, 0.2 mL 0.1 M sodium orthovanadate and 1 mL 5M sodium chloride in 88.4 mL dH2O. • 11. 4× ATP Reaction Mixture: for 10 mL, mix 0.4 mL 1 M manganese chloride and 0.02 mL 0.1 M ATP in 9.56 mL dH2O. • 12. 4× Negative Controls Mixture: for 10 mL, mix 0.4 mL 1 M manganese chloride in 9.6 mL dH2O. • 13. […] 500 mM EDTA. • 15. Antibody Dilution Buffer: for 100 mL, mix 10 mL 5% BSA/PBS, 0.5 mL 5% Camation Instant Milk® in PBS and 0.1 mL 0.1 M sodium orthovanadate in 88.4 mL TBST. • 16. Rabbit polyclonal antophosphotyrosine antibody, Sugen, Inc. • 17. Goat anti-rabbit horseradish peroxidase conjugated antibody, Biosource, Inc. • 18. ABTS Solution: for 1 L, mix 19.21 g citric acid, 35.49 g Na2HPO4 and 500 mg ABTS with sufficient dH2O to make 1 L. • 19. ABTS/H2O2: mix 15 mL ABST solution with 2ILL H2O2 five minutes before use. • 20. 0.2 M HCl Procedure: • 1. Coat ELISA plates with 2 μg Poly(Glu-Tyr) in 100 pL PBS, store overnight at 4° C. • 2. Block plate with 150 μL of 5% BSA/PBS for 60 min. • 3. Wash plate twice with PBS, once with 50 mM Hepes buffer pH 7.4. • 4. Add 50 μl of the diluted kinase to all wells. (Purified kinase is diluted with Kinase Dilution Buffer. Final concentration should be 10 ng/well.) • 5. Add 25 μL of the test compound (in 4% DMSO) or DMSO alone (4% in dH2O) for controls to plate. • 6. Incubate the kinase/compound mixture for 15 minutes. • 7. Add 25 μL of 40 mM MnCl2to the negative control wells. • 8. Add 25 μL ATP/MnCl2 mixture to the all other wells (except the negative controls). Incubate for 5 min. • 9. Add 25 μL 500 mM EDTA to stop reaction. • 10. Wash plate 3× with TBST. 11. Add 100 μL rabbit polyclonal anti-Ptyr diluted 1:10,000 in Antibody Dilution Buffer to each well. Incubate, with shaking, at room temperature for one hour. • 12. Wash plate 3× with TBST. • 13. […] Add 100 μL per well and incubate at room temperature, with shaking, for one hour. • 14. Wash plate 1× with PBS. • 15. Add 100 μl of ABTS/H2O2 solution to each well. • 16. If necessary, stop the development reaction with the addition of 100 μl of 0.2M HCl per well. • 17.
(In general: ELISA stands for enzyme-linked immunosorbent assay.)
For `Fc1ccc(Cn2nnc3ncc(-c4cc5ccccc5[nH]4)nc32)cc1` [Example 12, 1-(4-Fluoro-benzyl)-6-(1H-indol-2-yl)-1H-[1,2,3]triazolo[4,5-b]pyrazine], the IC50 was 1150 nM. The result for `COc1ccc(Cn2cnc3ncc(-c4ccc(F)cc4)nc32)cc1` [Example 2, 6-(4-Fluoro-phenyl)-1-(4-methoxy-benzyl)-1H-imidazo[4,5-b]pyrazine] reads 1790 nM; that for `Oc1ccc(Cn2cnc3ncc(-c4cccs4)nc32)cc1` [Example 1, 4-(6-Thiophen-2-yl-imidazo[4,5-b]pyrazin-1-ylmethyl)-phenol], 150 nM. The compound `Fc1ccc(Cn2cnc3ncc(-c4ccc(OCCN5CCOCC5)cc4)nc32)cc1` [Example 7, 1-(4-Fluoro-benzyl)-6-[4-(2-morpholin-4-yl-ethoxy)-phenyl]-1H-imidazo[4,5-b]pyrazine] gave an IC50 above 20000 nM.

As to `Fc1ccc(Cn2cnc3ncc(-c4cccs4)nc32)cc1` [Example 4, 1-(4-Fluoro-benzyl)-6-thiophen-2-yl-1 H-imidazo[4,5-b]pyrazine], the 50% inhibitory concentration (IC50) was above 20000 nM. The result for `Fc1ccc(Cn2nnc3ncc(-c4ccc(OCCN5CCOCC5)cc4)nc32)cc1` [Example 11, 1-(4-Fluoro-benzyl)-6-[4-(2-morpholin-4-yl-ethoxy)-phenyl]-1H-[1,2,3]triazolo[4,5-b]pyrazine] reads 170 nM. The figure for `COc1ccc(Cn2cnc3ncc(Br)cc32)cc1` [Example 13, 6-Bromo-1-(4-methoxy-benzyl)-1H-imidazo[4,5-b]pyridine] is above 20000 nM. The figure for `Fc1ccc(Cn2cnc3ncc(-c4ccc(F)cc4)nc32)cc1` [Example 5, 1-(4-Fluoro-benzyl)-6-(4-fluoro-phenyl)-1H-imidazo[4,5-b]pyrazine] is above 20000 nM; for `Fc1ccc(Cn2nnc3ncc(-c4cccs4)nc32)cc1` [Example 9, 1-(4-Fluoro-benzyl)-6-thiophen-2-yl-1H-[1,2,3]triazolo[4,5-b]pyrazine] it is 160 nM.

In turn, `Fc1ccc(Cn2cnc3ncc(-c4cccc(OCCN5CCOCC5)c4)nc32)cc1` [Example 6, 1-(4-Fluoro-benzyl)-6-[3-(2-morpholin-4-yl-ethoxy)-phenyl]-1H-imidazo[4,5-b]pyrazine] returned an IC50 above 20000 nM. The figure for `Oc1ccc(Cn2cnc3ncc(Br)cc32)cc1` [Example 14, 4-(6-Bromo-imidazo[4,5-b]pyridin-1-ylmethyl)-phenol] is 9600 nM; for `Fc1ccc(Cn2nnc3ncc(-c4cccc(OCCN5CCOCC5)c4)nc32)cc1` [Example 10, 1-(4-Fluoro-benzyl)-6-[3-(2-morpholin-4-yl-ethoxy)-phenyl]-1H-[1,2,3]triazolo[4,5-b]pyrazine] it is 1000 nM.

As to `Fc1ccc(Cn2nnc3ncc(Br)nc32)cc1` [Example 8, 6-Bromo-1-(4-fluoro-benzyl)-1H-[1,2,3]triazolo[4,5-b]pyrazine], the IC50 is 310 nM and 1710 nM.
